From patent US11076595B2, “1-(n,n-disubstituted carbamoyl) 4-(substituted sulfonyl)triazolin-5-one derivative, 4-(n,n-disubstituted carbamoyl) 1-(substituted sulfonyl)triazolin-5-one derivative, and herbicide containing said derivative as active ingredient” (HOKKO CHEMICAL INDUSTRY CO., LTD., priority 2017, dated 2021)

Experiments:
Format in all cases: in vivo
[1] = tested on: Echinochloa crus-galli; experiment: Test Example 1: herbicidal effect test by soil treatment in paddy field; conditions: 120 g/10a, paddy soil treatment just after sowing, 14 days after treatment
In short: (§1)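 Paddy soil in flooded pots (~3 cm water), sown with 30 seeds per species at 0–1 cm depth, kept in a greenhouse. Water-diluted emulsifiable concentrate applied dropwise right after sowing at 120 g active ingredient per 10 are. Weed suppression (%) from dry weight vs untreated pots after 14 days, two replicates.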

[2] = tested on: Lindernia pyxidaria; experiment: as above; conditions: 120 g/10a, paddy soil treatment just after sowing, 14 days after treatment
In short: as §1

[3] = tested on: Monochoria vaginalis; experiment: as above; conditions: 120 g/10a, paddy soil treatment just after sowing, 14 days after treatment
In short: as §1

[4] = tested on: Scirpus juncoides; experiment: as above; conditions: 120 g/10a, paddy soil treatment just after sowing, 14 days after treatment
In short: as §1

[5] = tested on: Echinochloa crus-galli; experiment: Test Example 2: herbicidal effect test by treatment during growing period in paddy field; conditions: treatment 7 days after sowing, 120 g/10a, evaluated 14 days after treatment
In short: (§2)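 Read-out is weed suppression (%), 1 − mean dry weight treated/untreated ×100, taken 14 days after treatment with duplicate plots. Treatment: water-diluted emulsifiable concentrate added dropwise to flooded paddy-soil pots 7 days post-sowing at 120 g active ingredient per 10 are.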

[6] = tested on: Lindernia pyxidaria; experiment: as above; conditions: treatment 7 days after sowing, 120 g/10a, evaluated 14 days after treatment
In short: as §2

[7] = tested on: Monochoria vaginalis; experiment: as above; conditions: treatment 7 days after sowing, 120 g/10a, evaluated 14 days after treatment
In short: as §2

[8] = tested on: Scirpus juncoides; experiment: as above; conditions: treatment 7 days after sowing, 120 g/10a, evaluated 14 days after treatment
In short: as §2

[9] = tested on: Amaranthus viridis; experiment: Test Example 3: herbicidal effect test by soil treatment in upland field; conditions: upland field soil treatment 1 day after sowing; 120 g/10a; evaluated 14 days after treatment
In short: (§3)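 Pre-emergence soil spray applied one day after sowing 20 seeds of each weed into surface soil, dosed at 120 g a.i. per 10 are in 100 L water per 10 are. After 14 days, plants weighed dry; suppression (%) calculated against untreated plots, duplicate plots per concentration.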

[10] = tested on: Chenopodium album; experiment: as above; conditions: upland field soil treatment 1 day after sowing; 120 g/10a; evaluated 14 days after treatment
In short: as §3

[11] = tested on: Echinochloa crus-galli; experiment: as above; conditions: upland field soil treatment 1 day after sowing; 120 g/10a; evaluated 14 days after treatment
In short: as §3

[12] = tested on: crabgrass; experiment: as above; conditions: upland field soil treatment 1 day after sowing; 120 g/10a; evaluated 14 days after treatment
In short: as §3

[13] = tested on: Amaranthus viridis; experiment: Test Example 4: herbicidal effect test by foliage treatment in upland field; conditions: upland field foliage treatment 7 days after sowing; 120 g/10a; evaluated 14 days after treatment
In short: (§4)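 Weeds were sown in alluvial field soil, 20 seeds per species, and sprayed 7 days after sowing with water-diluted emulsifiable concentrate at 100 liter per 10 are, equal to 120 g active ingredient per 10 are. Suppression was scored 14 days after treatment from dry weight relative to untreated plots.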

[14] = tested on: Chenopodium album; experiment: as above; conditions: upland field foliage treatment 7 days after sowing; 120 g/10a; evaluated 14 days after treatment
In short: as §4

[15] = tested on: Echinochloa crus-galli; experiment: as above; conditions: upland field foliage treatment 7 days after sowing; 120 g/10a; evaluated 14 days after treatment
In short: as §4

[16] = tested on: crabgrass; experiment: as above; conditions: upland field foliage treatment 7 days after sowing; 120 g/10a; evaluated 14 days after treatment
In short: as §4

SMILES	weed suppression rate, Echinochloa crus-galli [1] [%]	weed suppression rate, Lindemia pyxidaria [2] [%]	weed suppression rate, Monochoria vaginalis [3] [%]	weed suppression rate, Scirpus juncoides [4] [%]	weed suppression rate, Echinochloa crus-galli [5] [%]	weed suppression rate, Lindemia pyxidaria [6] [%]	weed suppression rate, Monochoria vaginalis [7] [%]	weed suppression rate, Scirpus juncoides [8] [%]	herbicidal effect (weed suppression rate), Amaranthus viridis [9] [%]	herbicidal effect (weed suppression rate), Chenopodium album [10] [%]	herbicidal effect (weed suppression rate), Echinochloa crus-galli [11] [%]	herbicidal effect (weed suppression rate), Crabgrass [12] [%]	herbicidal effect (weed suppression rate), Amaranthus viridis [13] [%]	herbicidal effect (weed suppression rate), Chenopodium album [14] [%]	herbicidal effect (weed suppression rate), Echinochloa crus-galli [15] [%]	herbicidal effect (weed suppression rate), Crabgrass [16] [%]
CC(C)N(C(=O)n1ncn(S(=O)(=O)C2CCCC2)c1=O)c1ccc(F)cc1F [Compound 1-284]	100	100	100	100	90	90	90	90	60	90	90	90	90	80	80	90
CC(C)N(C(=O)n1ncn(S(=O)(=O)C2CCCCC2)c1=O)c1c(F)cccc1F [Compound 1-308]	100	100	80	100	100	90	100	100	40	40	90	90	60	40	90	90
CC(C)N(C(=O)n1ncn(S(=O)(=O)C2CC2)c1=O)c1ccc(Cl)nc1Cl [Compound 1-249]	100	90	90	90	100	90	90	90	90	80	80	90	90	80	80	90
CC(C)N(C(=O)n1ncn(S(=O)(=O)C2CC2)c1=O)c1ccc(Cl)cn1 [Compound 1-244]	100	100	90	90	100	100	90	90	50	40	80	90	0	40	90	90
CC(C)N(C(=O)n1ncn(S(=O)(=O)C2CCCCC2)c1=O)c1ccc(F)cc1Cl [Compound 1-313]	90	80	80	90	90	80	80	90	90	80	80	90	90	80	80	90
CC(C)N(C(=O)n1ncn(S(=O)(=O)C(C)C)c1=O)c1ccc(F)cc1F [Compound 1-65]	100	100	100	100	100	90	90	90	80	90	100	100	90	80	80	90
CCC(C)S(=O)(=O)n1cnn(C(=O)N(c2ccc(F)cc2F)C(C)C)c1=O (stereo not shown) [Compound 1-101]	90	80	80	90	90	80	80	90	90	80	80	90	90	80	80	90
CC(C)N(C(=O)n1ncn(S(=O)(=O)N(C)C)c1=O)c1ccc(F)cc1F [Compound 1-1103]	90	80	80	90	90	80	80	90	60	60	100	100	90	80	80	90
CC(C)N(C(=O)n1ncn(S(=O)(=O)C2CC2)c1=O)c1ccccc1F [Compound 1-169]	100	90	90	90	100	80	90	80	90	80	80	90	90	80	80	90
Cc1nn(C(=O)N(c2ccc(F)cc2F)C(C)C)c(=O)n1S(=O)(=O)C1CC1 [Compound 1-257]	90	80	80	90	90	80	80	90	90	80	80	90	90	80	80	90
